# Legend:
# [1] = test system: lymphocyte-, macrophage- and dual-tropic strains of HIV-1 (IIIB, BaL, 89.6); assay: Cell-free HIV-1 inactivation (FIG. 5); assay type: cell-based, human immunodeficiency virus; conditions: HCLB or P4-R5 indicator cells
# Experimental: Cell-free HIV-1 strain IIIB (A) was treated with N-9, C31G, or SDS, and used to infect HCLB cells. Cell-free HIV-1 strains BaL (M tropic) (B) and 89.6 (dual tropic) (C) were treated with N-9, C31G or SDS,and used to infect P4-R5 cells. Assays were conducted. Infectivity following exposure is expressed as a percentage relative to the number of β-gal-positive cells in duplicate wells infected with virus incubated in the absence of a microbicidal compound. Results shown in FIG. 5 are the average cell counts for a total of four wells per concentration in two independent experiments.
# HPV 11 = assay: Human papilloma induction: HPV 11 in human foreskin xenografts in athymic mice; assay type: in vivo, human papillomavirus
# Experimental: Stocks of experimentally generated infectious HPV 11 were prepared and represented 10% w/v cell free extracts of virus in PBS. Undiluted aliquots of virus stocks (39 μl ) were mixed with a 40×solution of SDS 1 μl ), incubated at 37° C. for 10 min and immediately used to infect split thickness grafts of newborn human foreskin epithelium. Virus was not subsequently diluted. Control grafts were infected with untreated virus stock. Virus adsorption was for 1 hr at 37° C. […] Grafts were then transplanted beneath the renal capsule of athymic mice. Animals were maintained in isolator bubbles with antibiotic supplemented drinking water in the animal colony of the Hershey Medical Center. Three months following infection, animals were sacrificed, their kidneys were removed, and the xenografts were grossly examined. The remaining organs were examined for any apparent abnormalities and none were found. Portions of each graft were immediately fixed in 10% neutral-buffered formalin and processed by standard histologic techniques for staining with hematoxylin and eosin.
# Standard stocks of HPV 11 were used as undiluted virus. These virus stocks normally induce Condylomata in 90-100% of infected xenografts when diluted 1000 fold. […] Infection was then carried out for 1 hr and the grafts subsequently transplanted in vivo. Eight animals (16 kidneys) received grafts infected with SDS treated virus and 9 animals (17 kidneys) received normal virus. […] In the normal infections, 17 of 17 grafts survived and of these, 14 were transformed morphologically upon histologic examination and had typical papillomatous appearance.
# HIV-1 (strain IIIB) = assay: HIV-1 inactivation assay (HeLa-CD4-LTR-β-gal indicator cells); assay type: cell-based; conditions: 10 min 37° C.
# Experimental: One day prior to the assay, HeLa-CD4-LTR-β-gal cells were seeded into 12-well culture dishes at a concentration of 8×10^4 cells per well. A high titer (10^7.17 TCID50/ml) virus stock of HIV-1 (strain IIIB; Advanced Biotechnologies, Inc., Columbia, Md.) was diluted 1:10 with RPMI 1640 supplemented with 10% FBS. To assess viral inactivation by SDS, 78 μl of diluted virus were mixed with 2 μl of detergent solution, and incubated for 10 min at 37° C. After the inactivation period, the virus and detergent were diluted with 720 μl R10 (1:10) supplemented with DEAE dextran (20 μg/ml final concentration). Aliquots of treated virus (300 μl) were then added to duplicate wells of HeLa cells and incubated at 37° C. for 2 hr. Following viral adsorption, 2 ml of fresh media (DMEM supplemented with 10% FBS, 0.1 mg/ml G418, and 0.05 mg/ml hygromycin B) were added to each well. After incubation at 37° C. and 5% CO2 for 48 hr post-infection, cells were fixed and stained for β-galactosidase expression.
# It is established that N-9 can inactivate HIV-1. We compared inactivation of HIV-1 by a second non-ionic detergent, C31G, and by SDS. High titer virus stocks of HIV-1 were incubated with either C31G or SDS and then virus was assayed on indicator cells expressing β-gal under the control of the HIV-1 LTR. After 48 hours, cells were stained and the number of cells expressing increased β-gal counted. […].
# BPV-1 = BPV-1 focus assay in C127 mouse cells; assay type: cell-based, bovine papillomavirus; conditions: for foci/plate Exp. 2 Day 14 / foci/plate Exp. 2 Day 17: 37° C. 10 minutes; for foci/plate Exp. 2 Day 14 / foci/plate Exp. 2 Day 17 / foci/plate Exp. 1 day 12: diluted 1:1000; for foci/plate Exp. 1 day 12: 37° C. 30 minutes
# Experimental: Cell-free stocks of BPV-1 were prepared by extraction (10% w/v) of epidermal bovine warts in phosphate buffered saline (PBS). In order to detect the transforming ability of BPV-1, C127 mouse cells were seeded (3×10^5 cells per flask) into T-25^2 flasks. After 24 hr of growth, subconfluent cells were infected with BPV-1. For the positive controls, stock virus (20 μl) was diluted (1:1) with PBS, incubated at 37° C. for 10 min, diluted […] and then added (100 μl ) into the 5 ml of cell culture medium present on the cells. Cells were refed at 24 hours and subsequently 2 times weekly. The presence of morphologically transformed foci was counted after 2 weeks and then again at 3 weeks.
# Virus inactivations were carried out in vitro by addition of concentrated SDS solutions to the virus stocks (20 μl of virus plus 20 μl of detergent) and subsequent incubation at 37° C. for 10 or 30 min as indicated. Following inactivation, virus was diluted 1000 fold to lower the detergent concentration and the preparations were immediately used for infection as above.
# Although SDS could effectively reduce HSV-2 infectivity, it remained possible that this destruction was mediated by envelope removal. Because papillomaviruses are non-enveloped, the possibility remained that SDS would fail to inactivate these viruses. We utilized BPV-1 as a prototype PV because of its ability to rapidly (within 2 weeks) form multi-layered transformed foci in mouse fibroblasts in an in vitro assay. Table 3 describes results of two separate experiments in which stocks of BPV-1 were incubated at 37° C. with various concentrations of SDS (5% to 5×10^−4%) for either 10 or 30 minutes, diluted to lower the SDS concentration (to avoid cell toxicity) and then used to infect C127 cells. […] Table 4 lists several other commercially available detergents that were tested for possible inactivation of BPV-1. None of these detergents inactivated the morphologic transforming properties of the BPV-1.
# [2] = 0.025 % SDS during treatment (as printed in Table 5), grafts harvested after three months
# [3] = undiluted HPV 11 treated with 0.05% SDS, 37° C. 10 min
# [4] = 2.5 × 10^−3 % SDS during treatment
# [5] = 5 × 10^−2 % SDS during treatment
# [6] = 5 × 10^−3 % SDS during treatment
# [7] = 5 × 10^−4 % SDS during treatment
structure (smiles),measurement,setting,value
"CCCCCCCCCCCCOS(=O)(=O)[O-].[Na+] [SDS, Sodium dodecyl sulfate]","inactivation of cell-free HIV-1 strains IIIB, BaL and 89.6 (infectivity, β-gal-positive cells)",[1],inactivated
same,surviving grafts/ transplanted grafts,HPV 11; [2],13/16
same,total papillomas,HPV 11; [2],0
same,prevention of HPV 11 infection of xenografts,HPV 11; [3],effectively prevented virus infection
same,"xenografts showing viable tissue at harvest (normal, viable differentiating human epithelium)",HPV 11; [3],13 out of 16
same,concentration (as low as) giving total inactivation of HIV-1,HIV-1 (strain IIIB),0.025%
same,foci/plate Exp. 2 Day 14,BPV-1; [4],273
same,foci/plate Exp. 2 Day 17,BPV-1; [4],162
same,foci/plate Exp. 1 day 12,BPV-1; 5 % SDS during treatment,0
same,foci/plate Exp. 1 day 12,BPV-1; 5 × 10^−1 % SDS during treatment,0
same,foci/plate Exp. 2 Day 14,BPV-1; [5],0
same,foci/plate Exp. 2 Day 17,BPV-1; [5],0
same,foci/plate Exp. 1 day 12,BPV-1; [5],0
same,foci/plate Exp. 2 Day 14,BPV-1; [6],271
same,foci/plate Exp. 2 Day 17,BPV-1; [6],150
same,foci/plate Exp. 1 day 12,BPV-1; [6],0
same,foci/plate Exp. 2 Day 14,BPV-1; [7],229
same,foci/plate Exp. 2 Day 17,BPV-1; [7],151
same,relative potency in dose response curves,BPV-1; compared with other alkyl sulfate group members,most potent
same,inactivation of BPV-1 morphologic transformation of C127 cells,"BPV-1; detergent 1% final concentration, 37° C., 10 min",completely eliminated virus foci
same,concentration (as low as) that totally inactivates BPV-1 transforming ability,BPV-1; treatment of the virus at 37° C. for 10 minutes,0.05%
same,concentration (as low as) that totally inactivates BPV-1 transforming ability,BPV-1; treatment of the virus at 37° C. for 30 minutes,0.005%
